From ChEMBL document CHEMBL1201862, “PubChem BioAssay data set” (2004)
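How tested: cells in 96-well plates exposed to compound for 48 hours at five concentrations. At the GI50, growth is halved.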 Active and inactive are the calls of the source. No stated cut-off is given here; in the data, active = GI50 up to about 1.1 µM and inactive = higher.

How the values were obtained:
Experiment in all cases: NCI tumour cell line growth inhibition, 48 h
[1] = test system: SK-OV-3
[2] = test system: SF-268
[3] = test system: EKVX
[4] = test system: OVCAR-4
[5] = test system: PC-3
[6] = test system: SK-MEL-2
[7] = test system: ACHN
[8] = test system: IGROV-1
[9] = test system: HCC 2998
[10] = test system: T47D
[11] = test system: NCI/ADR-RES
[12] = test system: SR
[13] = test system: SNB-75
[14] = test system: RXF 393
[15] = test system: HOP-62
[16] = test system: UACC-257
[17] = test system: NCI-H226
[18] = test system: SN12C
[19] = test system: MDA-MB-435
[20] = test system: HT-29
[21] = test system: HCT-15
[22] = test system: SF-295
[23] = test system: OVCAR-5
[24] = test system: Hs-578T
[25] = test system: M14
[26] = test system: SK-MEL-5
[27] = test system: K562
[28] = test system: MCF7
[29] = test system: MDA-N
[30] = test system: MDA-MB-231
[31] = test system: DU-145
[32] = test system: KM12
[33] = test system: LOX IMVI
[34] = test system: HL-60
[35] = test system: CAKI-1
[36] = test system: RPMI-8226
[37] = test system: Malme-3M
[38] = test system: COLO 205
[39] = test system: CCRF-CEM
[40] = test system: A498
[41] = test system: NCI-H23
[42] = test system: OVCAR-8
[43] = test system: TK-10
[44] = test system: UO-31
[45] = test system: 786-0
[46] = test system: BT-549
[47] = test system: MOLT-4
[48] = test system: A549
[49] = test system: NCI-H522
[50] = test system: UACC-62
[51] = test system: SNB-19
[52] = test system: SW-620
[53] = test system: U-251
[54] = test system: OVCAR-3
[55] = test system: HCT-116
[56] = test system: SF-539
[57] = test system: NCI-H460
[58] = test system: HOP-92
[59] = test system: SK-MEL-28

In the case of `CC(C#N)N(CCc1ccccc1)C(=O)c1ccccc1` (stereo not drawn), the GI50 [1] is reported as > 100 µM (inactive), the GI50 [2] is reported as > 100 µM (inactive) and the GI50 [3] is reported as > 100 µM (inactive). The GI50 [4] was > 100 µM (inactive), the GI50 [5] was > 100 µM (inactive) and the GI50 [6] was > 100 µM (inactive). For the same compound, the GI50 [7] was > 100 µM (inactive), the GI50 [8] was > 100 µM (inactive) and the GI50 [9] was > 100 µM (inactive). The GI50 [10] was 39.2 µM (inactive), the GI50 [11] was > 100 µM (inactive) and the GI50 [12] was > 100 µM (inactive). For the same compound, the GI50 [13] was 27.4 µM (inactive), the GI50 [14] was > 100 µM (inactive) and the GI50 [15] was > 100 µM (inactive). For the same compound, the GI50 [16] was > 100 µM (inactive), the GI50 [17] was > 100 µM (inactive) and the GI50 [18] was > 100 µM (inactive). The GI50 [19] was > 100 µM (inactive), the GI50 [20] was > 100 µM (inactive) and the GI50 [21] was over 100 µM. For the same compound, the GI50 [22] was > 100 µM (inactive), the GI50 [23] was > 100 µM (inactive) and the GI50 [24] was > 100 µM (inactive). The GI50 [25] was > 100 µM (inactive), the GI50 [26] was > 100 µM (inactive) and the GI50 [27] was > 100 µM (inactive). The GI50 [28] was > 100 µM (inactive), the GI50 [29] was > 100 µM (inactive) and the GI50 [30] was > 100 µM (inactive). The GI50 [31] was > 100 µM (inactive), the GI50 [32] was > 100 µM (inactive) and the GI50 [33] was > 100 µM (inactive). The GI50 [34] was > 100 µM (inactive), the GI50 [35] was > 100 µM (inactive) and the GI50 [36] was > 100 µM (inactive). The GI50 [37] was > 100 µM (inactive), the GI50 [38] was > 100 µM (inactive) and the GI50 [39] was > 100 µM (inactive). The GI50 [40] was > 100 µM (inactive), the GI50 [41] was > 100 µM (inactive) and the GI50 [42] was > 100 µM (inactive). The GI50 [43] was > 100 µM (inactive), the GI50 [44] was 84.9 µM (inactive) and the GI50 [45] was > 100 µM (inactive). The GI50 [46] was > 100 µM (inactive), the GI50 [47] was 47.6 µM (inactive) and the GI50 [48] was > 100 µM (inactive). The GI50 [49] was > 100 µM (inactive), the GI50 [50] was > 100 µM (inactive) and the GI50 [51] was > 100 µM (inactive). For the same compound, the GI50 [52] was > 100 µM (inactive), the GI50 [53] was > 100 µM (inactive) and the GI50 [54] was > 100 µM (inactive). The GI50 [55] was > 100 µM (inactive) and the GI50 [56] was > 100 µM (inactive).

With `Cc1c2ccnc(C(=O)NCCN(C)C)c2cc2c3cc(O)ccc3n(C)c12` the GI50 [1] was 0.162 µM (active), the GI50 [2] was 0.0676 µM (active) and the GI50 [3] was 0.957 µM (active). For the same compound, the GI50 [4] was 0.537 µM (active), the GI50 [5] was 0.115 µM (active) and the GI50 [6] was 0.499 µM (active). For the same compound, the GI50 [7] was 0.0188 µM (active), the GI50 [8] was 0.277 µM (active) and the GI50 [9] was 0.573 µM (active). The GI50 [10] was 0.321 µM (active), the GI50 [11] was 0.766 µM (active) and the GI50 [12] was < 0.0184 µM (active). The GI50 [13] was 0.33 µM (active), the GI50 [14] was 0.29 µM (active) and the GI50 [15] was 0.0368 µM (active). The GI50 [16] was 1.53 µM (inactive), the GI50 [17] was 0.177 µM (active) and the GI50 [18] was 0.0596 µM (active). For the same compound, the GI50 [19] was 0.282 µM (active), the GI50 [20] was 0.479 µM (active) and the GI50 [21] was 0.12 µM. The GI50 [22] was 0.0671 µM (active), the GI50 [23] was 0.76 µM (active) and the GI50 [24] was 0.204 µM (active). The GI50 [57] was < 0.01 µM (active), the GI50 [25] was 0.215 µM (active) and the GI50 [26] was 0.149 µM (active). The GI50 [58] was 0.235 µM (active), the GI50 [27] was 0.123 µM (active) and the GI50 [28] was 0.082 µM (active). For the same compound, the GI50 [59] was 0.328 µM (active), the GI50 [29] was 0.286 µM (active) and the GI50 [30] was 0.314 µM (active). For the same compound, the GI50 [31] was 0.0649 µM (active), the GI50 [32] was 0.678 µM (active) and the GI50 [33] was 0.11 µM (active). For the same compound, the GI50 [34] was < 0.022 µM (active), the GI50 [35] was < 0.01 µM (active) and the GI50 [36] was 0.0927 µM (active). For the same compound, the GI50 [37] was 0.295 µM (active), the GI50 [38] was 0.268 µM (active) and the GI50 [39] was < 0.0145 µM (active). For the same compound, the GI50 [41] was 0.125 µM (active), the GI50 [42] was 0.1 µM (active) and the GI50 [43] was 2 µM (inactive). The GI50 [44] was 0.267 µM (active), the GI50 [45] was 0.0542 µM (active) and the GI50 [46] was 2.06 µM (inactive). For the same compound, the GI50 [47] was < 0.01 µM (active), the GI50 [48] was 0.0173 µM (active) and the GI50 [49] was 0.236 µM (active). For the same compound, the GI50 [50] was 0.15 µM (active), the GI50 [51] was 0.184 µM (active) and the GI50 [52] was 0.0931 µM (active). The GI50 [53] was 0.0373 µM (active), the GI50 [54] was 0.357 µM (active) and the GI50 [55] was 0.0608 µM (active). The GI50 [56] was 0.0603 µM (active).

For `Cc1ccc(C2SCC(=O)N2c2ccc(-c3ccc(-n4c(-c5ccccc5)nc5ccccc5c4=O)cc3)cc2)cc1` (stereo not drawn), the GI50 [1] was > 100 µM (inactive), the GI50 [2] was 33.8 µM (inactive) and the GI50 [3] was 53.3 µM (inactive). For the same compound, the GI50 [4] was 51.3 µM (inactive), the GI50 [5] was 42.4 µM (inactive) and the GI50 [6] was > 100 µM (inactive). For the same compound, the GI50 [7] was > 100 µM (inactive), the GI50 [8] was 25.3 µM (inactive) and the GI50 [9] was > 100 µM (inactive). The GI50 [10] was 24.8 µM (inactive), the GI50 [11] was 91.4 µM (inactive) and the GI50 [12] was 36.4 µM (inactive). For the same compound, the GI50 [15] was > 100 µM (inactive), the GI50 [16] was > 100 µM (inactive) and the GI50 [18] was 86.5 µM (inactive). For the same compound, the GI50 [19] was 88.3 µM (inactive), the GI50 [20] was 38.9 µM (inactive) and the GI50 [21] was 62.5 µM. For the same compound, the GI50 [22] was > 100 µM (inactive), the GI50 [23] was > 100 µM (inactive) and the GI50 [24] was 55.5 µM (inactive). The GI50 [57] was 59.6 µM (inactive), the GI50 [25] was 85.7 µM (inactive) and the GI50 [26] was 41.1 µM (inactive). For the same compound, the GI50 [58] was 35 µM (inactive), the GI50 [27] was 64.7 µM (inactive) and the GI50 [28] was > 100 µM (inactive). For the same compound, the GI50 [59] was > 100 µM (inactive), the GI50 [29] was 80 µM (inactive) and the GI50 [30] was 92.9 µM (inactive). The GI50 [31] was > 100 µM (inactive), the GI50 [32] was 55.8 µM (inactive) and the GI50 [33] was 54.1 µM (inactive). The GI50 [34] was 31 µM (inactive), the GI50 [35] was > 100 µM (inactive) and the GI50 [36] was > 100 µM (inactive). The GI50 [37] was > 100 µM (inactive), the GI50 [38] was 81.8 µM (inactive) and the GI50 [39] was 34.9 µM (inactive). For the same compound, the GI50 [40] was > 100 µM (inactive), the GI50 [41] was > 100 µM (inactive) and the GI50 [42] was > 100 µM (inactive). The GI50 [43] was > 100 µM (inactive), the GI50 [44] was 18.6 µM (inactive) and the GI50 [45] was 45.7 µM (inactive). The GI50 [46] was 60.7 µM (inactive), the GI50 [47] was 34.5 µM (inactive) and the GI50 [48] was > 100 µM (inactive). The GI50 [49] was 37.2 µM (inactive), the GI50 [50] was > 100 µM (inactive) and the GI50 [51] was > 100 µM (inactive). For the same compound, the GI50 [52] was > 100 µM (inactive), the GI50 [53] was 73.3 µM (inactive) and the GI50 [54] was > 100 µM (inactive).
